Assay results published in the Deep4Chem optical property database.
One block for each compound: values may come before it.

Assay: photoluminescence quantum yield (fraction); solvent given as SMILES

photoluminescence quantum yield (in CC#N): 0.38
SMILES: CC1=C2C3=C(CCc4ccccc43)C(C)=[N+]2[B-](F)(F)n2c(C)c3c(c21)-c1ccccc1CC3

photoluminescence quantum yield (in CC#N): 0.44
photoluminescence quantum yield (in CO): 0.41
photoluminescence quantum yield (in ClCCl): 0.46
photoluminescence quantum yield (in OCC(O)CO): 0.39
SMILES: CCCn1c2cccc3oc4cccc5c4[c+](c32)c2c1cccc2n5CCC

photoluminescence quantum yield (in ClCCl): 0.05
SMILES: COCCOCCOCN1C(=O)c2ccc3c(-c4ccccc4)c4c5ccc6c7c(ccc(c(-c8ccccc8)c4c4ccc(c2c34)C1=O)c75)C(=O)N(COCCOCCOC)C6=O

photoluminescence quantum yield (in CCO): 0.87
SMILES: CC(C)(C)OC(=O)NCCCC(=O)OCc1ccc2c3cccc4cccc(c5cccc1c52)c43

photoluminescence quantum yield (in ClCCl): 0.35
SMILES: CCCCN(CCCC)c1ccc(C#Cc2cc(C#Cc3ccc(N(CCCC)CCCC)cc3)c(C#Cc3ccc(C#N)cc3)cc2C#Cc2ccc(C#N)cc2)cc1

photoluminescence quantum yield (in CCCCCC): 0.23
photoluminescence quantum yield (in CO): 0.22
photoluminescence quantum yield (in ClCCl): 0.36
SMILES: C[Si](C)(C)c1ccc2ccc3cccc4ccc1c2c34

photoluminescence quantum yield (in C1CCOC1): 0.73
SMILES: C[Si](C)(C)c1ccc(-c2ccc(-c3ccc(-c4ccc(-c5ccc([Si](C)(C)C)s5)cc4)c4nsnc34)cc2)s1

photoluminescence quantum yield (in ClCCl): 0.33
SMILES: c1ccc(-c2cc3cc4cccc5c(-c6ccccc6)cc6cc7cccc2c7c3c6c45)cc1

photoluminescence quantum yield (in C1CCCCC1): 0.86
photoluminescence quantum yield (in CC#N): 0.94
photoluminescence quantum yield (in CC(C)O): 0.9
photoluminescence quantum yield (in CO): 0.68
photoluminescence quantum yield (in CS(C)=O): 0.94
photoluminescence quantum yield (in ClC(Cl)Cl): 0.98
photoluminescence quantum yield (in c1ccccc1): 0.92
SMILES: CN(C)c1ccc2nc(-c3ccc(C(=O)OC[C@H](NC(=O)OC(C)(C)C)C(=O)OCc4ccccc4)cc3)sc2c1

photoluminescence quantum yield (in CC#N): 0.52
photoluminescence quantum yield (in CCO): 0.68
photoluminescence quantum yield (in CN(C)C=O): 0.51
photoluminescence quantum yield (in O): 0.3
SMILES: CCN(CC)c1ccc2c(-c3ccc(S(=O)(=O)[O-])cc3S(=O)(=O)[O-])c3ccc(=[N+](CC)CC)cc-3oc2c1

photoluminescence quantum yield (in ClCCl): 0.42
SMILES: C[Si]1(C)O[Si](C)(C)c2cc3nc4ccccc4c(-c4ccccc4)c3cc2[Si](C)(C)O1

photoluminescence quantum yield (in ClC(Cl)Cl): 0.74
SMILES: CCCN1c2ccccc2Sc2cc(/C=C\c3cc(=O)oc4cc(O)ccc34)ccc21

photoluminescence quantum yield (in ClC(Cl)Cl): 0.78
SMILES: CCCCCCN1C(=O)c2cccc3c(-c4ccc(C)s4)ccc(c23)C1=O

photoluminescence quantum yield (in ClC(Cl)Cl): 0.35
SMILES: Cc1cc(C)c(C2=C3C=CC=[N+]3[B-]3(F)Oc4cc(O)cc5c6ccc(C)cc6c6cc2n3c6c45)c(C)c1 (stereo not drawn)

photoluminescence quantum yield (in c1ccccc1): 0.606
SMILES: O=c1oc2ccc3ccc(O)cc3c2nc1-c1ccccc1

photoluminescence quantum yield (in O): 0.36
SMILES: COc1ccc(-c2cc(N3CCCCC3)c(C#N)c3c2-c2cccc4cccc-3c24)cc1

photoluminescence quantum yield (in ClCCl): 0.38
SMILES: CCN(CC)c1ccc2cc(-c3nc4cc(C(=O)Nc5ccccc5[N+](=O)[O-])ccc4o3)c(=O)oc2c1

photoluminescence quantum yield (in ClCCl): 0.18
SMILES: CC(=O)c1cc(=O)n(C)c2cc(-c3ccc(N(C)C)cc3)sc12

photoluminescence quantum yield (in CS(C)=O): 0.02
photoluminescence quantum yield (in ClCCl): 0.22
SMILES: O=c1oc2ccccc2c2c1c(=O)oc1ccc3ccc(O)cc3c12

The next lines start with the compound.

SMILES: c1ccc(-c2cc(-c3ccc(N4c5ccccc5C(c5ccccc5)(c5ccccc5)c5ccccc54)cn3)nc(-c3ccccc3)n2)cc1
photoluminescence quantum yield (in O=P(c1ccccc1)(c1ccccc1)c1ccccc1Oc1ccccc1P(=O)(c1ccccc1)c1ccccc1): 0.86

SMILES: COc1cccc(C2=c3c(c4ccc(C(C)(C)C)cc4c4cc(C(C)(C)C)ccc34)=[N+]3C2=C(c2ccccc2)c2c(-c4cccc(OC)c4)c4c5ccc(C(C)(C)C)cc5c5cc(C(C)(C)C)ccc5c4n2[B-]3(F)F)c1
photoluminescence quantum yield (in C1CCCCC1): 0.62
photoluminescence quantum yield (in C1CCOC1): 0.5
photoluminescence quantum yield (in CC#N): 0.52
photoluminescence quantum yield (in Cc1ccccc1): 0.43
photoluminescence quantum yield (in ClCCl): 0.54

SMILES: Nc1ccc2[nH]ncc2c1
photoluminescence quantum yield (in C1CCCCC1): 0.14
photoluminescence quantum yield (in CC#N): 0.18
photoluminescence quantum yield (in CO): 0.37
photoluminescence quantum yield (in O): 0.57

SMILES: CC1(C)OB(c2cc3ccc4cccc5ccc(c2)c3c45)OC1(C)C
photoluminescence quantum yield (in Cc1ccccc1): 0.72

SMILES: Cc1cc(C#N)ccc1N1c2ccccc2C(c2ccccc2)(c2ccccc2)c2ccccc21
photoluminescence quantum yield (in Cc1ccccc1): 0.12

SMILES: CC(C)(C)c1ccc(C2=CC3=C(c4ccccc4)c4cc(-c5ccc(C(C)(C)C)cc5)c(-c5ccc(C(C)(C)C)cc5)n4[B-](F)(F)[N+]3=C2c2ccc(C(C)(C)C)cc2)cc1
photoluminescence quantum yield (in C1CCCCC1): 0.33
photoluminescence quantum yield (in C1CCOC1): 0.28
photoluminescence quantum yield (in CC#N): 0.29
photoluminescence quantum yield (in Cc1ccccc1): 0.43
photoluminescence quantum yield (in ClCCl): 0.3

SMILES: c1ccc(-c2cc(-c3ccccc3)[o+]c(-c3ccccc3)c2)cc1
photoluminescence quantum yield (in CC#N): 0.4
photoluminescence quantum yield (in ClCCCl): 0.28

SMILES: Cc1ccc2cc(C)ccc2c1
photoluminescence quantum yield (in C1CCCCC1): 0.59

SMILES: F[Si-](F)(c1ccccc1)(c1c2ccccc2cc2ccccc12)c1c2ccccc2cc2ccccc12
photoluminescence quantum yield (in C1CCOC1): 0.46

SMILES: CN(C)c1ccc(C2=Cc3c4ccccc4cc[n+]3[B-](F)(F)O2)cc1
photoluminescence quantum yield (in C1CCOC1): 0.658
photoluminescence quantum yield (in C1COCCO1): 0.863
photoluminescence quantum yield (in CC1CCCCC1): 0.979
photoluminescence quantum yield (in CC#N): 0.638
photoluminescence quantum yield (in CCOC(C)=O): 0.663
photoluminescence quantum yield (in CCOCC): 0.848
photoluminescence quantum yield (in CN(C)C=O): 0.561
photoluminescence quantum yield (in CO): 0.499
photoluminescence quantum yield (in COC(C)=O): 0.587
photoluminescence quantum yield (in ClC(Cl)Cl): 0.743

SMILES: COc1cn2cc(-c3ccc(C#N)cc3)[n-][n+]2c1
photoluminescence quantum yield (in ClCCl): 0.57

SMILES: Cn1ncc2c3c(C#N)c4c5ccccc5n(C)c4nc3ccc21
photoluminescence quantum yield (in CCOC(C)=O): 0.51

SMILES: C(=C\c1cc(/C=C/c2ccc(-n3c4ccccc4c4ccccc43)cc2)cc(/C=C/c2ccc(-n3c4ccccc4c4ccccc43)cc2)c1)/c1ccc(-n2c3ccccc3c3ccccc32)cc1
photoluminescence quantum yield (in C1CCOC1): 0.8
photoluminescence quantum yield (in CC#N): 0.83
photoluminescence quantum yield (in Cc1ccccc1): 0.59
photoluminescence quantum yield (in ClCCl): 0.75

SMILES: CCCCCCC1(CCCCCC)c2cc(-c3ccc(-c4ccc(-c5ccc(-c6ccc7c(c6)C(CCCCCC)(CCCCCC)c6cc(-n8c9ccccc9c9ccccc98)ccc6-7)s5)c5nsnc45)s3)ccc2-c2ccc(-n3c4ccccc4c4ccccc43)cc21
photoluminescence quantum yield (in ClCCl): 0.39

SMILES: C1=Cc2ccccc2Cc2ccccc21
photoluminescence quantum yield (in CC#N): 0.82
photoluminescence quantum yield (in CO): 0.016

SMILES: N#CC1=C(N)n2c(=O)c3ccccc3c(=O)n2C1c1ccccc1 (stereo not drawn)
photoluminescence quantum yield (in CS(C)=O): 0.057

SMILES: COc1nc(Cl)nc(Nc2ccc3c4c(cccc24)C(=O)c2ccccc2-3)n1
photoluminescence quantum yield (in CC#N): 0.52
photoluminescence quantum yield (in CC(C)=O): 0.54
photoluminescence quantum yield (in CC(C)O): 0.5
photoluminescence quantum yield (in CCCCOCCCC): 0.05
photoluminescence quantum yield (in CCOC(C)=O): 0.34
photoluminescence quantum yield (in CCOCC): 0.12
photoluminescence quantum yield (in CO): 0.33
photoluminescence quantum yield (in Cc1ccccc1): 0.27
photoluminescence quantum yield (in Clc1ccccc1): 0.5
photoluminescence quantum yield (in N#Cc1ccccc1): 0.58
photoluminescence quantum yield (in O=C1CCCCC1): 0.51

SMILES: Nc1cccc[nH+]1
photoluminescence quantum yield (in O): 0.64

SMILES: c1cc2ccc1-c1ccc(cc1)-c1sc(c3c1OCCO3)-c1ccc(cc1)-c1ccc(cc1)-c1sc(c3c1OCCO3)-c1ccc(cc1)-c1ccc(cc1)-c1sc-2c2c1OCCO2
photoluminescence quantum yield (in C1CCOC1): 0.34

SMILES: Oc1cccc2c(C3(O)C4CC5CC(C4)CC3C5)cccc12 (stereo not drawn)
photoluminescence quantum yield (in CC#N): 0.33

SMILES: C[C@]12SC(=O)C=C1c1nc(-c3ccccc3)[nH]c1C1=CC(=O)S[C@@]12C
photoluminescence quantum yield (in CC#N): 0.16

SMILES: O=C(O)c1c2ccccc2c(C(=O)O)c2ccccc12
photoluminescence quantum yield (in C1CCOC1): 0.66
photoluminescence quantum yield (in CN(C)C=O): 0.4

SMILES: O=C1c2ccc(-c3ccc(N(c4ccccc4)c4ccccc4)cc3)cc2S(=O)(=O)c2cccc(-c3ccc(N(c4ccccc4)c4ccccc4)cc3)c21
photoluminescence quantum yield (in c1ccc2c(c1)c1ccccc1n2-c1ccc(-c2ccc(-n3c4ccccc4c4ccccc43)cc2)cc1): 0.04

SMILES: CCCCC(CC)CN1C(=O)c2cccc3c(C#Cc4ccc(N(c5ccc(C#Cc6ccc7c8c(cccc68)C(=O)N(CC(CC)CCCC)C7=O)cc5)c5ccc(C#Cc6ccc7c8c(cccc68)C(=O)N(CC(CC)CCCC)C7=O)cc5)cc4)ccc(c23)C1=O (stereo not drawn)
photoluminescence quantum yield (in C1CCCCC1): 0.064
photoluminescence quantum yield (in C1CCOC1): 0.027
photoluminescence quantum yield (in CC#N): 0.111
photoluminescence quantum yield (in Cc1ccccc1): 0.053
photoluminescence quantum yield (in ClC(Cl)Cl): 0.041

SMILES: C(#Cc1ccc2ncsc2c1)c1ccc(N(c2ccccc2)c2ccccc2)cc1
photoluminescence quantum yield (in Cc1ccccc1): 0.23

SMILES: CCCCCCOc1ccc(N(c2ccc(OCCCCCC)cc2)c2ccc(-c3sc(-c4ccc(N(c5ccc(OCCCCCC)cc5)c5ccc(OCCCCCC)cc5)cc4)c4nc(-c5ccc(C(=O)OC)cc5)c(-c5ccc(C(=O)OC)cc5)nc34)cc2)cc1
photoluminescence quantum yield (in CN(C)C=O): 0.021
photoluminescence quantum yield (in ClC(Cl)Cl): 0.026

SMILES: N#Cc1cc2ccccc2oc1=N
photoluminescence quantum yield (in C1CCOC1): 0.0681
photoluminescence quantum yield (in CC#N): 0.00119
photoluminescence quantum yield (in CCOC(C)=O): 0.0842
photoluminescence quantum yield (in CS(C)=O): 0.00124
photoluminescence quantum yield (in ClC(Cl)Cl): 0.0946

SMILES: N#Cc1nc(N(Cc2ccccc2I)Cc2ccccc2I)c(C#N)nc1N(Cc1ccccc1I)Cc1ccccc1I
photoluminescence quantum yield (in ClC(Cl)Cl): 0.61

SMILES: [C-]#[N+]c1ccc(-c2ccc(N)cc2)cc1
photoluminescence quantum yield (in C1CCCCC1): 0.66
photoluminescence quantum yield (in C1CCOC1): 0.78
photoluminescence quantum yield (in C1COCCO1): 0.79
photoluminescence quantum yield (in CC#N): 0.65
photoluminescence quantum yield (in CC(C)=O): 0.52
photoluminescence quantum yield (in CCCCCC): 0.76
photoluminescence quantum yield (in CCOC(C)=O): 0.67
photoluminescence quantum yield (in CN(C)C=O): 0.78
photoluminescence quantum yield (in CO): 0.1
photoluminescence quantum yield (in CS(C)=O): 0.77
photoluminescence quantum yield (in Cc1ccccc1): 0.68
photoluminescence quantum yield (in ClC(Cl)Cl): 0.2
photoluminescence quantum yield (in ClCCl): 0.75
photoluminescence quantum yield (in O): 0.0088
photoluminescence quantum yield (in c1ccncc1): 0.06

SMILES: N#Cc1ccc(C#Cc2ccc3ccc4ccc(C#Cc5ccc(C#N)cc5)c5ccc2c3c45)cc1
photoluminescence quantum yield (in CCCCCC): 0.8
photoluminescence quantum yield (in CO): 0.734
photoluminescence quantum yield (in ClCCl): 0.732

SMILES: CC(C)C[Si](C#Cc1c2c(=O)c3ccccc3c2c(C#C[Si](CC(C)C)(CC(C)C)CC(C)C)c2c(=O)c3ccccc3c12)(CC(C)C)CC(C)C
photoluminescence quantum yield (in ClC(Cl)Cl): 0.1

SMILES: CCCCCCc1cc2c3c(c1)c(=C1c4ccccc4Sc4ccccc41)c1cc(CCCCCC)cc4c1N3c1c(cc(CCCCCC)cc1c4=C1c3ccccc3Sc3ccccc31)c2=C1c2ccccc2Sc2ccccc21
photoluminescence quantum yield (in ClCCl): 0.57

SMILES: C/C(=N\Nc1ccc(C#N)cc1)c1ccccn1
photoluminescence quantum yield (in CO): 0.28
